What was measured:
[1] = target: T1, IL-1 receptor on EL-4 membranes (Mus musculus, UniProt P13504); experiment: IL-1 radioreceptor competition binding assay
T1 construct: incubated at varying concentrations with EL-4 membranes; endogenous in cells; host or cells: EL-4 cell membranes
T1 sequence (P13504 20-576): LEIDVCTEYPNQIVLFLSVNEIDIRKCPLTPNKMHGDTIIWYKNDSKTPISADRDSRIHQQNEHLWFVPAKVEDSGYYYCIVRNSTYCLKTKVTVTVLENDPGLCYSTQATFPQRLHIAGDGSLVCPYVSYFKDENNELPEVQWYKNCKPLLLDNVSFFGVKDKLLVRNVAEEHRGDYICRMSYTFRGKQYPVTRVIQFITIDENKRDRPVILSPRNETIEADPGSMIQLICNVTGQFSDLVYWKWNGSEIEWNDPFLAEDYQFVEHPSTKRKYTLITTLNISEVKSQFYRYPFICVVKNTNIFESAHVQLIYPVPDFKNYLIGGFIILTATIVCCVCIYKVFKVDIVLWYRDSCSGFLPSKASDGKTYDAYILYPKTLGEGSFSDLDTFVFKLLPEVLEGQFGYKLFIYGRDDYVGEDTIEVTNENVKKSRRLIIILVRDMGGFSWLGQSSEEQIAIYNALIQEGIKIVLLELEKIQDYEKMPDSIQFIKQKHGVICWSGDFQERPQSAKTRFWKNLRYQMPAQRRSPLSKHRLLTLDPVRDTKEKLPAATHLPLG
Procedure: Pegylated IL-1ra was purified from the reaction mixture using hydrophobic exchange chromatography (Bio-Rad; HRLC MP7 HlC). A linear gradient with decreasing salt concentrations from 0.43 to 0.0M (NH4)2 SO4 in 50 mM sodium phosphate pH 7.0 in 20 minutes was used to separate pegylated IL-1ra and unmodified IL-1ra. Aliquots of fractions were evaluated by SDS-PAGE and pooled fractions were assayed in an IL-1 radioreceptor competition binding assay. [Kilian et al. J. Immunol., 136, 4509, (1986)]. Briefly, IL-1ra and PEG-IL-1ra were incubated at varying concentrations with EL-4 membranes for 30 min at 37° C. The [^125 I]IL-1 alpha was then added and the incubation continued for 30 min. The assay was terminated by vacuum filtration and the collection of cell bound [^125 I]IL-1 on filter plates. The concentration of IL-1ra or PEG-IL-1ra that inhibits binding of [^125l]IL- 1 by 50% (IC50) was determined graphically. […] The pegylated IL-1ra mixture retained its ability-to bind to the IL-1 receptor on EL-4 membranes within a factor 2 to 3 fold relative to the unmodified II1-1ra.

[2] = test system: D10 cell; experiment: D10 cell proliferation assay (specific activity of rIL-1 alpha); type: cell-based; settings: for Specific Activity: label = apparent molecular weight (kD)
Procedure: Pegylated rIL-1 alpha was purified from the reaction mixture after 60 minutes using hydrophobic exchange chromatography (Bio-Rad; HRLC. MP7 HlC). A linear gradient with decreasing salt concentration from 0.43 to 0.0M (NH4)2 SO4 in 50 mM sodium phosphate pH 7.0 in 20 minutes was used to separate pegylated rIL-1 alpha and unmodified rIL-1 alpha. Aliquots of fractions were evaluated by SDS-PAGE and pooled fractions were assayed for specific activity in a D10 cell proliferation assays by the method described by Kaye et al. [J. Exp. Med. 158:836, (1983)]. Protein concentrations were determined spectrophotometrically at […] using an extinction coefficient of 1.0 for rIL-1 alpha. The specific activity of the rIL-1 alpha is approximately 1.0×10^8 units/mg. The 26 kD pegylated IL-1 alpha conjugate retains bioactivity within 2-3 fold of relative to IL-1 alpha.

[3] = test system: CTLL cell; experiment: CTLL cell proliferation assay (specific activity of rIL-2); type: cell-based; settings: Example 3, Table III: rIL-2 conjugated to PEG with reagent of Example 1; label = apparent molecular weight (kD)
Procedure: Acad. Sci., USA, 84:1483, (1987)] using hydrophic exchange chromatography (Bio-Rad; Biogel-phenyl 5-PW). […] Aliquots of the fractions were evaluated by SDS-PAGE and pooled fractions were assayed to determine its specific activity in a CTLL cell proliferation assay by the method described by Gillis et al. [J. Immunology 120:2027, (1978)].

[4] = test system: MDBK; experiment: Anti-viral activity (specific activity) in an MDBK assay; type: cell-based; settings: label = apparent molecular weight (kD)
Procedure: The predominant molecular weight species from the reaction mixture were identified by SDS-PAGE with apparent molecular weights of 15 (unmodified),and 28 kD. The 28 kD pegylated protein accounted for 40% of the, total protein. The pegylated IFN-alpha was purified from the 60 minute reaction mixture and characterized using hydrophobic exchange chromatography (Bio-Rad; Biogel-phenyl-S-PW). A linear gradient with decreasing salt concentrations from 0.42M to 0.0M (NH4)2 SO4 in 50 mM sodium phosphate pH 7.0 in 20 minutes was used to separate pegylated IFN-alpha and unmodified IFN-alpha. Aliquots of the fractions were evaluated by SDS-PAGE and pooled fractions were assayed for anti-viral activity (specific activity) in an MDBK assay by the method described in by Familletti, et al. [Methods Enzym. 78,387 (1987)].
Protein concentrations were determined spectrophotometrically at […] using an extinction coefficient of 1.0 for a 1 mg/ml IFN-alpha buffered solution.

[5] = test system: rIL-1alpha induction of interleukin-6; experiment: Inhibition of rIL-1alpha induction of interleukin-6 in mice (pharmacodynamics); type: in vivo
Procedure: The pharmacodynamics of IL-1ra protein was evaluated in vivo by the ability of the IL-1ra to inhibit rIL-1alpha induction of interleukin-6. Serum from mice treated with rIL-1alpha contain high levels of IL-6, [McIntosh et al., Immunol. 143: 162, (1989)]. The administration of unmodified IL-1ra together with IL-1alpha (0 hr time point) inhibits the induction of IL-6. This test system was used to compare the pharmacodynamic properties of unmodified and PEG IL-1ra. […] Three hours later, serum samples were collected. IL-6 levels (units) were determined using a modification of an IL-6 assay that has been previously described [Van Snick et al., Proc. Natl. Acad. Sci. USA 83:9679, (1986)]. In the IL.-6 assay, B9 hybridoma cells were treated with two fold serial dilutions of the test sera in 96-well microtiter plates. Following a 3 day incubation at 37° C. in a humidified atmosphere comprised of 5% CO2 and 95% air, the wells were pulsed with 0.5 uCi of tritiated thymidine and incubated for an additional 18 hr. The cells were then harvested onto glass fiber filters and the level of tritiated thymidine incorporation was determined by scintillation counting. IL-6 activity is expressed as U/ml. IL-6 units are defined as the inverse of the serum dilution which produces half-maximal tritiated thymidine incorporation compared to a reference standard.

[6] = Example 7, Table VIII: rIL-1 alpha conjugated with reagent of Example 5

alpha-[2-[[(2-Pyridinyloxy)carbonyl]amino]ethyl]omega-[2-[[(2-pyridinyloxy)carbonyl]amino]-ethoxy]poly(oxy-1,2-ethanediyl) SRU 180 [Example 33]
IC50 ([1]; Example 6A, Table VII: IL-1ra conjugated with reagent of Example 5a, label = apparent molecular weight (kD)): 9.0 ng/mL
IC50 ([1]; Example 12A, Table XIII: IL-1ra pegylated with reagent of Example 11a, label = apparent molecular weight (kD)): 6.0 ng/mL
IC50 ([1]; Example 19, Table XIV: IL-1ra pegylated with reagent of Example 18, label = apparent molecular weight (kD)): 30.0 ng/mL
IC50 ([1]; Example 19A, Table XV: IL-1ra pegylated with reagent of Example 18a, label = apparent molecular weight (kD)): 9.0 ng/mL
IC50 ([1]; Example 29, Table XX: IL-1ra pegylated with reagent of Example 28, label = molecular weight (kD)): 5.0 ng/mL
Specific Activity [2, 6]: 4.5 × 10^6 units/mg

alpha-[(2-Pyridinyloxy)thiocarbonyl]-omega-methoxypoly (oxy-1,2-ethanediyl) SRU 225 [Example 28]
Specific Activity [3]: 2.4 × 10^7 units/mg
IC50 ([1]; Example 12, Table XII: IL-1ra pegylated with reagent of Example 11, label = apparent molecular weight (kD)): 3.0 ng/mL
Specific Activity ([4]; Example 8, Table IX: IFN-alpha conjugated with reagent of Example 5): 1.4 × 10^8 units/mg
Specific Activity ([4]; Example 20, Table XVI: IFN-alpha conjugated with reagent of Example 18): 8.0 × 10^7 units/mg

rIL-1 alpha: Recombinant Interleukin 1-alpha, unmodified; apparent molecular weight 17 kD by SDS-PAGE
IL-6 in mice treated only with IL-1 ([5]; Example 6 experiment, 0.2 ug rIL-1 alpha, serum three hours later): 28852 U/ml
IL-6 induced by IL-1 alone ([5]; Example 12 experiment): 27283 u/ml
IL-6 response to IL-1 alone ([5]; Example 19A experiment, 0.05 ug rIL-1 alpha): 9203 units/ml
Specific Activity [2, 6]: 4.6 × 10^7 units/mg
Specific Activity ([2]; Example 27, Table XIX: rIL-1 alpha conjugated to PEG with reagent of Example 23): 1.1 × 10^8 units/mg
specific activity of the rIL-1 alpha ([2]; general statement, Example 7): approximately 1.0×10^8 units/mg

B1: 26 kD rIL-1 alpha (Example 7): rIL-1 alpha pegylated with the reagent of Example 5; apparent molecular weight 26 kD (conjugate, UniProt P01583 113-271, looked up)
Interleukin-1 alpha: SAPFSFLSNVKYNFMRIIKYEFILNDALNQSIIRANDQYLTAAALHNLDEAVKFDMGAYKSSKDDAKITVILRISKTQLYVTAQDEDQPVLLKEMPEIPKTITGSETNLLFFWETHGTKNYFTSVAHPNLFIATKQDYWVCLAGGPPSITDFQILENQA
modifications: PEG conjugate
notes: apparent molecular weight 26 kD
bioactivity relative to IL-1 alpha ([2]; Example 7): 2-3 fold

B2: 33 kD rIL-1 alpha (Example 7): rIL-1 alpha pegylated with the reagent of Example 5; apparent molecular weight 33 kD (conjugate, UniProt P01583 113-271, looked up)
Interleukin-1 alpha: B1 Interleukin-1 alpha
modifications: PEG conjugate
notes: apparent molecular weight 33 kD
bioactivity relative to IL-1 alpha ([2]; Example 7): substantial loss of bioactivity

Source: US5559213A, “Polyethylene-protein conjugates” (Hoffmann-La Roche Inc., priority 1995, dated 1996)
